≈ marks a conversion by molar mass, not a printed value. Like-named read-outs stand apart in the source and are kept apart here.
Assays:
[1] = system: S. aureus 34-81; experiment: In vitro antibacterial MIC/MBC test; type: cell-based; details: Staphylococcus aureus, 3481, S. aureus 34-81
Description: (§1) Win 52,522 and Win 35,439 were solubilized in 0.1 ml of 0.5 N NaOH/mg of compound and diluted in sterile distilled water to 160 mcg/ml. Vancomycin and methicillin were solubilized in sterile distilled water to 1250 mcg/ml of base compound. The stock solutions were sterilized by filtration through membrane filters with a 0.45 μm pore size.
(§2) The bacterial cultures listed in Table I (hereinbelow) were grown overnight at 37° C. in MHB for all cultures except the Streptococcus strains. These were grown in BHI+10% NHS. The overnight broth cultures were adjusted to an optical density of 0.10 (650 nm, B L Spectronic 20) in sterile distilled water and subsequently diluted to 6.7×10^6 cells/ml in MHB or BHI+1% NHS.
(§3) Serial two-fold dilutions of the compound solutions were prepared in MHB (or in BHI+1% NHS for tests with Streptococci) and dispensed into 96-well microtiter trays in a volume of 0.1 ml/well using a Sandy Springs (Bellco Glass Co.) dispenser. The trays were then inoculated with 0.0015 ml of a suspension containing 6.7×10^6 cells/ml of the appropriate inoculum using a MIC-2000 inoculator (Dynatech Corp.) resulting in a final inoculum of approximately 1×10^4 cells/well or 1×10^5 cells/ml. The trays were incubated at 37° C. for 18-20 hours and the minimal inhibitory concentration (MIC), defined as the lowest concentration of compound to inhibit visible bacterial growth, was recorded.
(§4) After the MIC values were recorded, the contents in the microtiter trays were thoroughly mixed on a Bellco Mini-orbital Shaker (Bellco Glass Co.) for 3 min. at a setting of 8. A portion (0.0015 ml) from each well was then transferred via an MIC-2000 inoculator to plates containing MHA or BHI agar+10% NHS. The plates were incubated at 37° C. for 18-20 hrs. The minimal bactericidal concentration (MBC), defined as the lowest concentration of compound that prevented the formation of a recognizable colony on the agar surface, was recorded.

[2] = system: S. aureus 4-81; experiment: In vitro antibacterial MIC/MBC test; type: cell-based; details: Staphylococcus aureus, 481, S. aureus 4-81
Description: as §1, §2, §3, §4

[3] = system: S. aureus 41-81; experiment: In vitro antibacterial MIC/MBC test; type: cell-based; details: Staphylococcus aureus, 4181, S. aureus 41-81
Description: as §1, §2, §3, §4

[4] = system: S. aureus Glorgio; experiment: In vitro antibacterial MIC/MBC test; type: cell-based; details: Staphylococcus aureus, S. aureus Glorgio
Description: as §1, §2, §3, §4

[5] = system: S. aureus S-500; experiment: In vitro antibacterial MIC/MBC test; type: cell-based; details: Staphylococcus aureus, S500, S. aureus S-500
Description: as §1, §2, §3, §4

[6] = system: S. aureus Smith; experiment: In vitro antibacterial MIC/MBC test; type: cell-based; details: Staphylococcus aureus, S. aureus Smith
Description: as §1, §2, §3, §4

[7] = system: S. epidermidis (12228); experiment: In vitro antibacterial MIC/MBC test; type: cell-based; details: Staphylococcus epidermidis, ATCC12228, S. epidermidis ATCC No. 12228
Description: as §1, §2, §3, §4

[8] = system: S. epidermidis (17917); experiment: In vitro antibacterial MIC/MBC test; type: cell-based; details: Staphylococcus epidermidis, ATCC17917, S. epidermidis ATCC No. 17917
Description: as §1, §2, §3, §4

[9] = system: S. epidermidis 1-5-H; experiment: In vitro antibacterial MIC/MBC test; type: cell-based; details: Staphylococcus epidermidis, 15H, S. epidermidis 1-5-H
Description: as §1, §2, §3, §4

[10] = system: S. epidermidis 2-1-B; experiment: In vitro antibacterial MIC/MBC test; type: cell-based; details: Staphylococcus epidermidis, 21B, S. epidermidis 2-1-B
Description: as §1, §2, §3, §4

[11] = system: S. faecalis (11700); experiment: In vitro antibacterial MIC/MBC test; type: cell-based; details: Enterococcus faecalis, ATCC11700, S. faecalis ATCC No. 11700
Description: as §1, §2, §3, §4

[12] = system: S. pneumoniae Type III; experiment: In vitro antibacterial MIC/MBC test; type: cell-based
Description: as §1, §2, §3, §4

[13] = system: S. pneumoniae Type I; experiment: In vitro antibacterial MIC/MBC test; type: cell-based; details: Streptococcus pneumoniae, S. pneumoniae Type I
Description: as §1, §2, §3, §4

[14] = system: S. pyogenes (89); experiment: In vitro antibacterial MIC/MBC test; type: cell-based; details: Streptococcus pyogenes, S. pyogenes SWRI No. 89
Description: as §1, §2, §3, §4

[15] = system: S. edidermidis; experiment: In vitro MIC/MBC summary (Table II); type: cell-based, S. epidermidis; details: Staphylococcus epidermidis, 5 S. edidermidis strains
Description: as §1, §2, §3, §4

[16] = system: Staphylococcus aureus Smith; experiment: Mouse protection test, S. aureus Smith infection, single dose; type: in vivo, ICR mice; Staphylococcus aureus; details: single dose; for ED50: Staphylococcus aureus, 168 h, read-out: Protective Dose 50% (95% Confidence Limits); for times more efficacious than Win 35,439: S. aureus
Description: ICR mice, female, 18-20 grams each.
Solutions of Win 52,522 and Win 35,439 were prepared by dissolving the appropriate weight of drug in 0.3 to 0.4 ml of 1 N NaOH and then bringing the solutions to the desired volume with distilled water. Methicillin and vancomycin were dissolved directly in distilled water.
Two and one-half ml of pool were added to 247.5 ml of 5% gastric mucin to provide the test inoculum containing 2.1×10^4 cells/ml.
Mice were inoculated intraperitoneally with 0.5 ml of the bacterial test inoculum.
1. Single dose test--Mice were medicated subcutaneously or orally once (0.5 ml) one-half hour postinfection.
Deaths were recorded daily for seven days for all tests. Fifty percent protective dose values (PD50's) were calculated using probit analysis [SAS Users Guide: Statistics, 1982 Edition, SAS Institute, Inc., Cary, N.C.].

## CCn1cc(C(=O)O)c(=O)c2cc(F)c(-c3cc(C)nc(C)c3)cc21 [Win 52,522, 1-ethyl-6-fluoro-1,4-dihydro-7-(2,6-dimethyl-4-pyridinyl)-4-oxo-3-quinolinecarboxylic acid]
[1]; read-out: MBC
  MBC: 0.03 µg/mL (≈ 0.0881 µM)
[1]; read-out: MIC
  MIC: 0.03 µg/mL (≈ 0.0881 µM)
[2]; read-out: MBC
  MBC: 0.03 µg/mL (≈ 0.0881 µM)
[2]; read-out: MIC
  MIC: 0.015 µg/mL (≈ 0.0441 µM)
[3]; read-out: MBC
  MBC: 0.015 µg/mL (≈ 0.0441 µM)
[3]; read-out: MIC
  MIC: 0.015 µg/mL (≈ 0.0441 µM)
[4]; read-out: MBC
  MBC: 0.015 µg/mL (≈ 0.0441 µM)
[4]; read-out: MIC
  MIC: < 0.008 µg/mL
[5]; read-out: MBC
  MBC: 0.06 µg/mL (≈ 0.176 µM)
[5]; read-out: MIC
  MIC: 0.03 µg/mL (≈ 0.0881 µM)
[6]; read-out: MBC
  MBC: 0.03 µg/mL (≈ 0.0881 µM)
[6]; read-out: MIC
  MIC: 0.03 µg/mL (≈ 0.0881 µM)
[7]; read-out: MBC
  MBC: 0.06 µg/mL (≈ 0.176 µM)
[7]; read-out: MIC
  MIC: 0.06 µg/mL (≈ 0.176 µM)
[8]; read-out: MBC
  MBC: 0.125 µg/mL (≈ 0.367 µM)
[8]; read-out: MIC
  MIC: 0.06 µg/mL (≈ 0.176 µM)
[9]; read-out: MBC
  MBC: 0.06 µg/mL (≈ 0.176 µM)
[9]; read-out: MIC
  MIC: 0.06 µg/mL (≈ 0.176 µM)
[10]; read-out: MBC
  MBC: 0.03 µg/mL (≈ 0.0881 µM)
[10]; read-out: MIC
  MIC: 0.03 µg/mL (≈ 0.0881 µM)
[11]; read-out: MBC
  MBC: 0.25 µg/mL (≈ 0.735 µM)
[11]; read-out: MIC
  MIC: 0.25 µg/mL (≈ 0.735 µM)
[12]; Streptococcus pneumoniae, S. pneumoniae Type III, read-out: MBC
  MBC: 0.5 µg/mL (≈ 1.47 µM)
[12]; Streptococcus pneumoniae, S. pneumoniae Type III, read-out: MIC
  MIC: 0.5 µg/mL (≈ 1.47 µM)
[12]; in vitro, S. pneumoniae type III
  times less potent than vancomycin: 8 times
[13]; read-out: MBC
  MBC: 0.25 µg/mL (≈ 0.735 µM)
[13]; read-out: MIC
  MIC: 0.25 µg/mL (≈ 0.735 µM)
[14]; read-out: MBC
  MBC: 0.5 µg/mL (≈ 1.47 µM)
[14]; read-out: MIC
  MIC: 0.5 µg/mL (≈ 1.47 µM)
[15]; read-out: MBC 50%
  MBC: 0.06 µg/mL (≈ 0.176 µM)
[15]; read-out: MBC 90%
  MBC: 0.06 µg/mL (≈ 0.176 µM)
[15]; read-out: MBC Range
  MBC: 0.03 to 0.125 µg/mL (≈ 0.0881 to 0.367 µM)
[15]; read-out: MIC 50%
  MIC50: 0.06 µg/mL (≈ 0.176 µM)
[15]; read-out: MIC 90%
  MIC90: 0.06 µg/mL (≈ 0.176 µM)
[15]; read-out: MIC Range
  MIC: 0.03 to 0.06 µg/mL (≈ 0.0881 to 0.176 µM)
[16]; 0.095 mg/kg sc
  Survivors/Total: 0/10
[16]; 0.19 mg/kg po
  Survivors/Total: 0/10
[16]; 0.19 mg/kg sc
  Survivors/Total: 0/10
[16]; 0.39 mg/kg po
  Survivors/Total: 0/10
[16]; 0.39 mg/kg sc
  Survivors/Total: 2/10
[16]; 0.78 mg/kg po
  Survivors/Total: 0/10
[16]; 0.78 mg/kg sc
  Survivors/Total: 4/10
[16]; 1.56 mg/kg po
  Survivors/Total: 7/10
[16]; 1.56 mg/kg sc
  Survivors/Total: 10/10
[16]; 3.13 mg/kg po
  Survivors/Total: 10/10
[16]; po
  ED50: ~1.4 mg/kg
  times more efficacious than Win 35,439: 3.9 times
[16]; sc
  ED50: 0.8 mg/kg
  times more efficacious than Win 35,439: 3.6 times
